Results taken from US20050025847A1, “Microbicidal compositions and method of use” (Program for Appropriate Technology in Health, priority 2003, published 2005).

Columns and labels:
[1] = oral and dermal toxicity, genotoxicity, reproductive/developmental toxicity, sensitization and photosensitization studies; settings: oral, dermal, sensitization, photosensitization studies
Source text: (§1) A preferred microbicidal agent according to the present invention is bisabolol. In particular, alpha-bisabolol (levomenol) is a preferred microbicidal agent. Bisabolol is a naturally occurring unsaturated monocyclic sesquiterpene alcohol. Alpha-bisabolol is used in a wide range or cosmetic formulations as a skin conditioning agent at concentrations ranging from approximately 0.001% in lipstick to approximately 1% in underarm deodorants. Bisabolol has been used for cosmetic purposes in India and worldwide in skin, oropharyngeal, nasal and vaginal products such as douches up to concentrations of approximately 5%, but has not been used in the prevention or treatment of STIs and/or common vaginal diseases. Bisabolol is the main active principle of chamomile (Matricaria chamomilla) and up to approximately 50% of the essential oil of chamomile consists of alpha-bisabolol.

HIV = assay: inhibition of HIV infectivity; format: cell-based
lactobacilli = assay: effect on lactobacilli; format: cell-based
Source text: as §1

Trichophyton rubrum = settings: isolates of Trichophyton rubrum; cited from earlier work
Microsporum canis = settings: isolates of Microsporum canis; cited from earlier work
[2] = tested on: Trichophyton mentagrophytes; settings: isolates of Trichophyton mentagrophytes; cited from earlier work
Candida albicans = settings: isolates of Candida albicans; cited from earlier work
Epidermophyton floccosum = settings: isolates of Epidermophyton floccosum; cited from earlier work

Row | Compound | toxicity [1] | anti-HIV activity (HIV) | IC50, inhibition of HIV infectivity (HIV; mixed with the virus and cells) | IC50, inhibition of HIV infectivity (HIV; mixed with the virus for 5 minutes before washing) | inactivation of HIV (HIV; washed away after short-term treatment) | effect on lactobacilli (lactobacilli; concentration 2 mg/ml) | effect on lactobacilli (lactobacilli; concentration 10 mg/ml) | fungicidal activity in vitro (Trichophyton rubrum) | fungicidal activity in vitro (Microsporum canis) | fungicidal activity in vitro [2] | fungicidal activity in vitro (Candida albicans) | fungicidal activity in vitro (Epidermophyton floccosum)
1 | CC(C)=CCCC(C)(O)C1CC=C(C)CC1 (stereo not drawn) [Bisabolol, 3-Cyclohexene-1-methanol, alpha,4-dimethyl-alpha-(4-methyl-3-pentenyl)] | little toxicity | very high anti-HIV activity | 0.6 µg/mL | 1 µg/mL | inactivates HIV | no effect | no effect | – | – | – | – | –
2 | Cc1cc(C2CCCCC2)n(O)c(=O)c1.NCCO [Ciclopirox Olamine, 6-Cyclohexyl-1-hydroxy-4-methyl-2-(1H)-pyridone ethanolamine salt] | – | – | – | – | – | – | – | exhibits fungicidal activity | exhibits fungicidal activity | exhibits fungicidal activity | exhibits fungicidal activity | exhibits fungicidal activity
